Read-outs that look alike come from different tables or passages of the source.
Columns and labels:
[1] = biological target: Cloned Canine 5-HT1D-1 (RDC4) (Canis lupus familiaris, UniProt P11614); assay: [3H]5-HT binding to cloned canine 5-HT1D-1 (RDC4) in transfected cell membranes
[2] = biological target: Human Native Membranes 5-HT1D; details: literature values (footnotes a, b, c), read-out: Estimated equilibrium dissociation constants (Ki values); cited from earlier work
Cloned Human 5-HT1D-2 = Cloned Human 5-HT1D-2 (Homo sapiens, UniProt P28222); assay: [3H]5-HT binding to cloned human 5-HT1D-2 (gene 11) in transfected cell membranes
Cloned Human 5-HT1D-1 = Cloned Human 5-HT1D-1 (Homo sapiens, UniProt P28221); assay: [3H]5-HT binding to cloned human 5-HT1D-1 (gene 8-30-84) in transfected cell membranes
[3] = biological target: T1, cloned rat 5-HT1B receptor (Rattus norvegicus, UniProt P28564); assay type: binding
T1 construct: expressed in transfected cells; host or cells: Cos-7 cells, transient; membrane fraction
Procedure: To islolate the putative rat homolog of the 5-HT1D gone, a rat library was screened at high stringency using a human 5-HT1D sequence as a probe. […] To identify the pharmacological profile of this receptor, radioligand binding assays were performed on a membrane fraction derived from the transfected cells.

human 5-HT1D clone = assay: Radioligand binding to human 5-HT1D clone (comparison with rat clone)
[4] = read-out: Estimated equilibrium dissociation constants (Ki values), [3H]5-HT displacement, membranes of LM (tk−) cells stably transfected, Cheng-Prusoff

Chain of Cloned Canine 5-HT1D-1 (RDC4) (P11614 whole entry): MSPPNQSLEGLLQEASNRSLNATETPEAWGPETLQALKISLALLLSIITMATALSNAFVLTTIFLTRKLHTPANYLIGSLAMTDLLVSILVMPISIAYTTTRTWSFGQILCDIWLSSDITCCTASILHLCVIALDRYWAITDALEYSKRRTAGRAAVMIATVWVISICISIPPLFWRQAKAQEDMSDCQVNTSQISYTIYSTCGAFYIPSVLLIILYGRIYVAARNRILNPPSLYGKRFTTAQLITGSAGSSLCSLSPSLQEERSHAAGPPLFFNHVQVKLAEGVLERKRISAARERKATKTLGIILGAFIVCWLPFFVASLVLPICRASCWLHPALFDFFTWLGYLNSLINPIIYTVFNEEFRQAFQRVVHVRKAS
Chain of Cloned Human 5-HT1D-2 (P28222 whole entry): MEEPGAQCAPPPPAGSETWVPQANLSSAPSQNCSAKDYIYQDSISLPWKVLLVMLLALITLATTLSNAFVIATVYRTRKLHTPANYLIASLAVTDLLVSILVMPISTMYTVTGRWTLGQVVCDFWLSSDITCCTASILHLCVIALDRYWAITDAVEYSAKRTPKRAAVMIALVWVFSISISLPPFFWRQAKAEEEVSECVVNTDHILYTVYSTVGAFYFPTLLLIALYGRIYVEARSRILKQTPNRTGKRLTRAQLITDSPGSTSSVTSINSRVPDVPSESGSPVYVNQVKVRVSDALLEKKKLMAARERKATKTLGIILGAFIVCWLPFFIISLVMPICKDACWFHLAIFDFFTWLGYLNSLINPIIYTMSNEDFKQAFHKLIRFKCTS
Chain of Cloned Human 5-HT1D-1 (P28221 whole entry): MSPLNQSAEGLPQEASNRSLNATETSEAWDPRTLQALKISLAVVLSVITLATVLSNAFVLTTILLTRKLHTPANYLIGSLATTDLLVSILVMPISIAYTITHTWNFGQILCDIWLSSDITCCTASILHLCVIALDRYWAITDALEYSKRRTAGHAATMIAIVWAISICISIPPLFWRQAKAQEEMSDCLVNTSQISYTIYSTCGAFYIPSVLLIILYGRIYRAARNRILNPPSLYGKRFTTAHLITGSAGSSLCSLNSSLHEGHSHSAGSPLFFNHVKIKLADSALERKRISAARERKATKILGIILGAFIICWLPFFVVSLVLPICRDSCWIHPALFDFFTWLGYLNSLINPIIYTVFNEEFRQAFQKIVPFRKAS
T1 sequence (P28564 whole entry): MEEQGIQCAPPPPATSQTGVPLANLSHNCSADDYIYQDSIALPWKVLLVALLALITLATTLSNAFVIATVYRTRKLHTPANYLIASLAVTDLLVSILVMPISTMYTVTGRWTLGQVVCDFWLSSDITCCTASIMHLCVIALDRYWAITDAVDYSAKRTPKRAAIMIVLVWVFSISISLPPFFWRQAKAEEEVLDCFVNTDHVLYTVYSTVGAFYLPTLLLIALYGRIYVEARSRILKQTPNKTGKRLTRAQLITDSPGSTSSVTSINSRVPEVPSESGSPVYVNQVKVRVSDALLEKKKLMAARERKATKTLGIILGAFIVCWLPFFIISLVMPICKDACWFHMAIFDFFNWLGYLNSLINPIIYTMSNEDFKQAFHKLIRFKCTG

For CN1[C@@H]2CC[C@H]1C[C@@H](OC(=O)c1c[nH]c3ccccc13)C2 [ICS 205-930], the “ability to compete for 3H-5-HT binding sites” value (“ability to compete” below) ([1]; RDC4-transfected cells) was “unable to compete”.

For NCCc1c[nH]c2ccccc12 [Tryptamine], the Ki [2] is given as 46 nM and the Ki [1, 4] is given as 343 ± 15 nM.

In the case of CN1C[C@H](C(=O)N[C@]2(C)O[C@@]3(O)[C@@H]4CCCN4C(=O)[C@H](Cc4ccccc4)N3C2=O)C=C2c3cccc4[nH]cc(c34)C[C@H]21 [Ergotamine], the Ki [2] is listed as 0.3 nM and the Ki [1] is listed as 1.9 ± 0.3 nM.

In the case of NCCc1c[nH]c2ccc(O)cc12 [5-Hydrozytryptamine], the Ki [2] is given as 6.5 nM and the Ki [1, 4] is given as 5 ± 1.4 nM.

For COc1cc(N)c(Cl)cc1C(=O)NC1CN2CCC1CC2 (stereo not shown) [Zacopride], the Ki [1] was > 10000 nM, the Ki (Cloned Human 5-HT1D-2) was > 10000 nM and the Ki (Cloned Human 5-HT1D-1) was > 10000 nM.

In the case of CN1C[C@H](CNC(=O)OCc2ccccc2)C[C@@H]2c3cccc4c3c(cn4C)C[C@H]21 [Metergoline], the Ki [2] is given as 12 nM, the Ki (Cloned Human 5-HT1D-2) is given as 18 ± 3 nM and the Ki (Cloned Human 5-HT1D-1) is given as 5.8 ± 1.1 nM.

In the case of Cc1[nH]c2ccc(O)cc2c1CCN [2-methyl-5-HT], the Ki [2] is given as 1700 nM, the Ki [1, 4] is given as 444 ± 30 nM and the Ki (Cloned Human 5-HT1D-2; [4]) is given as 860 ± 109 nM. It also gave a Ki (Cloned Human 5-HT1D-1; [4]) of 915 ± 68 nM.

For Corynanthine, the Ki [2] is given as > 10000 nM.

CC(C)(C)NCC(O)COc1cccc2[nH]c(C#N)c(I)c12 (stereo not shown) [[^125I]iodocyanopindolol] showed a Kd ([3]; Cos-7 membranes, in the presence of 3 μM isoproterenol, read-out: Kd of [125I]iodocyanopindolol) of 0.16 nM.

In the case of COc1ccc2[nH]cc(CCN)c2c1 [5-Methoxytryptamine], the Ki [2] is listed as 6.2 nM.

For NCCc1c[nH]c2ccc(OCc3ccccc3)cc12 [5-Benzoxyltryptamine], the Ki (Cloned Human 5-HT1D-2; [4]) was 19 ± 8 nM and the Ki (Cloned Human 5-HT1D-1; [4]) was 9.6 ± 3 nM.

For Clc1cccc(N2CCNCC2)c1 [mCPP], the Ki [2] is listed as 1200 nM, the Ki [1, 4] is listed as 329 ± 80 nM and the Ki (Cloned Human 5-HT1D-2; [4]) is listed as 361 ± 31 nM. It also gave a Ki (Cloned Human 5-HT1D-1; [4]) of 216 ± 20 nM.

For O=C(c1ccc(F)cc1)C1CCN(CCn2c(=O)[nH]c3ccccc3c2=O)CC1 [Ketanserin], the Ki [2] is listed as > 10000 nM, the Ki [1] is listed as > 1000 nM and the “ability to compete” value ([1]; RDC4-transfected cells) is listed as “unable to compete”. It also gave a Ki (Cloned Human 5-HT1D-2) of 5200 ± 524 nM and a Ki (Cloned Human 5-HT1D-1) of 73 ± 12 nM.

Work on COC(=O)[C@H]1[C@H]2C[C@H]3c4[nH]c5ccccc5c4CCN3C[C@H]2CC[C@@H]1O [Rauwolscine] yielded a Ki [1] of 5.3 ± 2.9 nM and a Ki (Cloned Human 5-HT1D-1) of 16 ± 2 nM.

In the case of CC[C@@H](CO)NC(=O)[C@@H]1C=C2c3cccc4c3c(cn4C)C[C@H]2N(C)C1 [Methysergide], the Ki [1, 4] is reported as 7.7 ± 1.7 nM, the Ki (Cloned Human 5-HT1D-2; [4]) is reported as 25 ± 5 nM and the Ki (Cloned Human 5-HT1D-1; [4]) is reported as 3.6 ± 0.6 nM.

In the case of COc1ccccc1N1CCN(CCCCN2C(=O)c3ccccc3C2=O)CC1 [NAN-190], the Ki (Cloned Human 5-HT1D-2) is reported as 652 ± 48 nM and the Ki (Cloned Human 5-HT1D-1) is reported as 194 ± 12 nM.

COc1ccc2[nH]cc(CCN(C)C)c2c1 [5-methoxy-DMT] gave a Ki [1, 4] of 5.1 ± 1.7 nM.

In the case of CSc1ccc2c(c1)C(N1CCN(C)CC1)Cc1ccccc1S2 (stereo not shown) [Methiothepin], the Ki [2] is given as 17 nM, the Ki (Cloned Human 5-HT1D-2; [4]) is given as 25 ± 7 nM and the Ki (Cloned Human 5-HT1D-1; [4]) is given as 11 ± 2 nM.

For CNS(=O)(=O)Cc1ccc2[nH]cc(CCN(C)C)c2c1 [Sumatriptan], the “affinity” value (Cloned Human 5-HT1D-1; refers to Table 1) was “extremely high affinity”.

With CN1C[C@H](CO)C=C2c3cccc4[nH]cc(c34)C[C@H]21 [Lysergol] the Ki (Cloned Human 5-HT1D-2; [4]) was 1.2 ± 0.1 nM and the Ki (Cloned Human 5-HT1D-1; [4]) was 0.63 ± 0.1 nM.

With Oc1ccc2c(CCC3CCNCC3)c[nH]c2c1 [6-OH-indalpine] the “ability to compete” value ([1]; RDC4-transfected cells) was “unable to compete”.

For CC(C)(C)NCC(O)COc1cccc2[nH]c(C#N)c([125I])c12 (stereo not shown) [[^125I]iodocyanopindolol], the “specific binding of [125I]I-CYP” value (human 5-HT1D clone; at 1 nM) was “no specific binding detected”.

Nc1ccc(CCN2CCN(c3cccc(C(F)(F)F)c3)CC2)cc1 [PAPP] gave a Ki [1, 4] of 35 ± 6 nM, a Ki (Cloned Human 5-HT1D-2; [4]) of 10 ± 1 nM and a Ki (Cloned Human 5-HT1D-1; [4]) of 3.1 ± 0.2 nM.

In the case of NCCc1c[nH]c2ccc(C(N)=O)cc12 [5-Carboxamidotryptamine], the “affinity for the binding site” value ([1]; RDC4-transfected cells) is reported as “high affinity” and the Ki [1, 4] is reported as 0.92 ± 0.06 nM.

In the case of CCCN(CCC)C1CCc2cccc(O)c2C1 (stereo not shown) [DPAT], the Ki [2] is given as 340 nM and the Ki [1, 4] is given as 86 ± 21 nM.

In the case of CC(C)NCC(O)COc1cccc2[nH]ccc12 (stereo not shown) [Pindolol], the Ki [2] is given as > 10000 nM, the Ki [1] is given as > 1000 nM and the “effect of co-incubation on high affinity 3H-5-HT binding” value ([1]; RDC4-transfected cells, 1 μm) is given as “not affected”. The “effect of masking ligand on specific binding or pharmacological profile” value ([1]; transfected Cos-7 cells, RDC4, masking ligand 1 μM) was “no significant effect”, the Ki (Cloned Human 5-HT1D-2) was 4880 ± 302 nM and the “effect of masking ligand on specific binding or pharmacological profile” value (Cloned Human 5-HT1D-2; transfected Cos-7 cells, peptide 11, masking ligand 1 μM) was “no significant effect”. For the same compound, the Ki (Cloned Human 5-HT1D-1) was 4110 ± 504 nM.

For FC(F)(F)c1cccc(N2CCNCC2)c1 [TFMPP], the Ki [2] is given as 210 nM and the Ki [1, 4] is given as 112 ± 14 nM.

In the case of ^3H-5-HT, the Kd (human 5-HT1D clone; read-out: Kd of [3H]5-HT) is reported as 4 nM, the Kd ([1]; read-out: KD of radioligand (apparent high affinity), RDC4-transfected Cos-7 and Ltk- cells) is reported as ~3 nM and the Kd ([1]; read-out: Kd of radioligand, Ltk- cells transfected with RDC4) is reported as 3.6 nM. The Kd ([1]; read-out: affinity of radioligand binding, transiently transfected Cos-7 cells, RDC4) was 3 nM.

In the case of O=C(CCCN1CCC2(CC1)C(=O)NCN2c1ccccc1)c1ccc(F)cc1 [Spiperone], the Ki [1] is reported as > 1000 nM, the Ki (Cloned Human 5-HT1D-2) is reported as > 10000 nM and the Ki (Cloned Human 5-HT1D-1; [4]) is reported as 995 ± 96 nM.

In the case of CN1CCc2cc(Cl)c(O)cc2[C@@H](c2ccccc2)C1 [SCH-23390], the Ki (Cloned Human 5-HT1D-2) is reported as 1210 ± 626 nM and the Ki (Cloned Human 5-HT1D-1) is reported as 676 ± 69 nM.

Compound CC[C@@H](CO)NC(=O)[C@@H]1C=C2c3cccc4[nH]cc(c34)C[C@H]2N(C)C1 [Methylergonovine] has a Ki (Cloned Human 5-HT1D-2) of 2.9 ± 1.5 nM and a Ki (Cloned Human 5-HT1D-1) of 0.86 ± 0.36 nM.

c1ccc2c(N3CCNCC3)cccc2c1 [1-Napthylpiperazine] showed a Ki (Cloned Human 5-HT1D-2; [4]) of 12 ± 2 nM and a Ki (Cloned Human 5-HT1D-1; [4]) of 7.4 ± 0.6 nM.

With CCCN(CCC)CCc1c[nH]c2ccc(C(N)=O)cc12 [Dipropyl-5-CT, dipropyl-5-carboxyamidotryptamine] the “activity at the rat receptor” value [3] was “essentially inactive”, the Ki (Cloned Human 5-HT1D-2; [4]) was 42 ± 4 nM and the Ki (Cloned Human 5-HT1D-1; [4]) was 13 ± 1 nM.

For COC(=O)[C@@H]1[C@H]2C[C@H]3c4[nH]c5ccccc5c4CCN3C[C@@H]2CC[C@@H]1O [Yohimbine], the Ki [2] is given as 42 nM, the Ki [1, 4] is given as 32 ± 6 nM and the Ki (Cloned Human 5-HT1D-1; [4]) is given as 22 ± 2 nM.

Cc1ccc(N(CC2=NCCN2)c2cccc(O)c2)cc1 [Phentolamine] showed a Ki (Cloned Human 5-HT1D-2) of 2150 ± 685 nM and a Ki (Cloned Human 5-HT1D-1) of 775 ± 72 nM.

For Cc1nc2sccn2c(=O)c1CCN1CCC(=C(c2ccc(F)cc2)c2ccc(F)cc2)CC1 [Ritanserin], the Ki [2] is listed as 3600 nM, the Ki (Cloned Human 5-HT1D-2) is listed as 1200 ± 115 nM and the Ki (Cloned Human 5-HT1D-1) is listed as 54 ± 10 nM.

For COc1cc(CC(C)N)c(OC)cc1I (stereo not shown) [DOI], the Ki [2] is listed as 670 nM, the Ki [1, 4] is listed as 729 ± 102 nM and the Ki (Cloned Human 5-HT1D-2; [4]) is listed as 1670 ± 451 nM. It also gave a Ki (Cloned Human 5-HT1D-1; [4]) of 714 ± 81 nM.
